From patent publication US12643907B2 (priority 2020, dated 2026)
“Also recorded” adds a separate entry of the source.

What was measured:
[1] = test system: mice; assay: Mouse 55° C. tail-withdrawal assay, antinociception of the compound itself (opioid agonist effects); type: in vivo; details: s.c.
[2] = target: T1, MOR (Mus musculus, UniProt P42866); assay: Mouse 55° C. warm-water tail withdrawal (WWTW) assay, antagonism of the MOR agonist morphine; type: in vivo; details: for antagonism of morphine-induced antinociception at 24 h: 24 h after a 30 mg/kg s.c. treatment
T1 construct: from tissue; host or cells: living mice (in vivo)

[3] = naloxone; cited from earlier work

T1 sequence (P42866 whole entry): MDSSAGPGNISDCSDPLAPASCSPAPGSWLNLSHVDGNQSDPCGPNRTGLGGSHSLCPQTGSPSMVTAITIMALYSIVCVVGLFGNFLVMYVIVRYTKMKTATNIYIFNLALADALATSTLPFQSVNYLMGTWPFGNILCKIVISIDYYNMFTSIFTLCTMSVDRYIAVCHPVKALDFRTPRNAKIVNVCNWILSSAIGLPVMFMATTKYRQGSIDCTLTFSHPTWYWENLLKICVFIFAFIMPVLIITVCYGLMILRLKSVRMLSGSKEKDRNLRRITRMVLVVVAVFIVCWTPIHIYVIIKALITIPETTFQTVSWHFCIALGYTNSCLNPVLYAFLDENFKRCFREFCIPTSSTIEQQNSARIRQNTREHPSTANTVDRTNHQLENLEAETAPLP

C=CCN1CCC23c4c5ccc(O)c4OC2C(N(C)CCS(=O)(=O)F)CCC3(O)C1C5 (racemic) [TJ-345]
weak transient antinociception of compound alone ([1]; >30 nmol i.c.v. or 60 mg/kg, first 40 min after treatment): ~15% | antagonism of morphine-induced antinociception at 24 h ([2]; 30 mg/kg): only partial blockade; also recorded: only partially antagonized | duration of blockade of opiate analgesia ([2]; doses as low as 3 nmol (i.c.v) or 30 mg/kg (s.c.)): 24 to 48 h | doses that antagonized morphine antinociception ([2]; i.c.v. pretreatment, not 0.3 nmol): 3 to 300 nmol | doses that antagonized morphine antinociception ([2]; s.c. pretreatment, not 1 mg/kg): 3 to 60 mg/kg

C=CCN1CC[C@]23c4c5ccc(O)c4O[C@H]2[C@H](N(C)CCS(=O)(=O)F)CC[C@@]3(O)C1C5 [TJ-171]
antinociception of compound alone (opioid agonist effects) ([1]; doses up to 30 mg/kg): did not display antinociception; also recorded: no antinociception | duration of MOR antagonism ([2]; 30 mg/kg, s.c.): at least 24 hours | antagonism of morphine-induced antinociception at 24 h [2]: fully antagonized

C=CCN1CC[C@]23c4c5ccc(O)c4O[C@H]2C(=O)CC[C@@]3(O)[C@H]1C5 [naloxone]
half-life [3]: 2 h
